Assay results published in article PMC5978685, “Design, Synthesis, and Evaluation of Novel Immunomodulatory Small Molecules Targeting the CD40–CD154 Costimulatory Protein-Protein Interaction” (Molecules : A Journal of Synthetic Chemistry and Natural …, 2018).
“Also recorded” adds a separate entry of the source.

Tests used:
[1] = test system: alloantigen-induced T cell response in draining popliteal lymph node; test: alloantigen-induced T cell expansion in draining lymph node; format: in vivo, mouse (Balb/c); settings: Balb/c mice, DBA-2 splenocytes in footpad; 10–20 mg/kg s.c. b.i.d.; p < 0.0001 vs vehicle
Experimental: The most promising compounds of the present series were evaluated for in vivo activity using the same model of alloantigen-induced T cell expansion in the draining lymph nodes (DLNs) that was described before. This procedure involved injection of splenocytes isolated from DBA-2 mice into the footpad of Balb/c recipients. Within three full days, this causes a significant increase in the number of cells in the draining popliteal lymph node, and this is inhibited by compounds with immunosuppressive activity.
The ability to inhibit alloantigen-induced T cell response in a draining lymph node was tested as described before. In brief, BALB/c mice (10–12 weeks old, female) received a footpad injection of 1 × 10^7 splenocytes isolated from DBA-2 mice (10–12 weeks old, male). CD154 antibody (MR-1; 20 mg/kg, day −1 and 0) or test compounds (20–60 mg/kg; b.i.d. from day −1 to 3, in 20% HPβCD) were administered s.c., and the draining popliteal lymph nodes (DLNs) were collected 3 days after the alloantigen challenge. DLN cells were counted and data are shown as mean ± SD (n = 3–4 per group).
(§1) All binding inhibition and cell assays were tested in duplicate or triplicate per plates, and assays were performed as at least three independent experiments. As before, binding and cytotoxicity data were converted to percent inhibition and fitted with standard log inhibitor vs. normalized response models using nonlinear regression in GraphPad Prism (GraphPad, La Jolla, CA, USA) to establish half-maximal (median) inhibitory concentration (IC50) or median lethal concentration (LC50) values. Cell assay data were fitted with a similar model that also allowed for a variable slope using the log inhibitor vs. normalized response (variable slope) model from Prism with a Hill slope (n) shared across all compounds. Cell assays and draining lymph node data were analyzed by one-way repeated-measures analysis of variance (ANOVA) followed by Dunnett’s multiple comparison test as a post hoc test for individual differences using GraphPad Prism and a significance level of p < 0.05 for all comparisons.
Figure 6 Inhibition of alloantigen-induced T cell response in a draining lymph node by compounds 6, 15, 18, and 19. Mice (Balb/c) received a footpad injection of allogeneic splenocytes (isolated from DBA-2 mice) and were treated with anti-CD154 antibody (MR-1; 20 mg/kg, day −1 and 0) or compounds as shown (10–40 mg/kg, b.i.d. from day −1 to 3, s.c. in 20% HPβCD). Draining (popliteal) lymph nodes were collected three days after the alloantigen challenge and cells were counted. Data are shown as mean ± SD. Significant differences compared to vehicle-treated controls are indicated by asterisks (**** p < 0.0001; one-way ANOVA followed by Dunnett’s multiple comparison test).

[2] = MTS cytotoxicity assay in HEK Blue cells; format: cell-based; settings: human, HEK Blue CD40 sensor cells; HEK Blue cells, 24 h; read-out: LC50 (cytotoxicity, MTS)
Excerpt: (§2) As further confirmation of the inhibitory activity of our compounds, a cell-based assay was used with sensor cells (HEK Blue CD40) containing a secreted embryonic alkaline phosphatase (SEAP) reporter gene under the control of a promoter fused to a NF-κB binding site and transfected with CD40. […] For all tested compounds, the corresponding IC50 values are higher than those determined in the cell-free binding inhibition assay (Table 1) representing a loss of activity which is likely due to non-specific binding on account of the presence of proteins and cells in the assay, as well as hydrophobicity-related problems. Cytotoxicities were also evaluated in these same cells and at the same concentrations using a standard MTS assay to ensure that effects are present at non-toxic concentration levels.
(§3) For the MTS assay, HEK Blue cells were cultured and prepared in the same manner as in the CD40 sensor assay. Then cells were added to a 96-well microtiter plate at a density of 50,000 cells/well in the absence or presence of various concentrations of compounds diluted in the same media, without the addition of CD154. The plate was incubated at 37 °C for 24 h. 20 µL per well of MTS, 3-(4,5-dimethylthiazol-2-yl)-5-(3-carboxymethoxyphenyl)-2-(4-sulfophenyl)-2H-tetrazolium, (Promega, Madison, WI, USA) was added to the culture after treatments, and cells were incubated at 37 °C for 4 h. Formazan levels were measured using a plate reader at 490 nm.
as §1

HEK Blue cells = test: MTS cytotoxicity assay in HEK Blue cells; format: cell-based; settings: LC50 (MTS) / NF-κB IC50 in sensor cells
Excerpt: as §2, §3, §1

CD40–CD154 (CD40L) = target: T1, CD40–CD154 (CD40L) (Homo sapiens, UniProt P29965); set-up: method as in PMID 29024591; settings: 95% CI of 235–401; read-out: CD40–CD154 IC50 (previous assessment); cited from earlier work
T1 construct: purchased Enzo Life Sciences
T1 sequence (P29965 116-261 limits assumed): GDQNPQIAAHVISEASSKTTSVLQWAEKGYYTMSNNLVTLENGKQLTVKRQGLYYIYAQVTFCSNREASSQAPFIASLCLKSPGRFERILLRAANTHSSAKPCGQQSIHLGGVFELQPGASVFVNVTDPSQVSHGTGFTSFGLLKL

| SMILES | inhibition of alloantigen-induced T cell expansion in draining lymph node [1] | CC50 at 24 h [2] [µM] | therapeutic index, TI = LC50/IC50 (HEK Blue cells) | IC50 (CD40–CD154 (CD40L)) [µM] |
| --- | --- | --- | --- | --- |
| COC(=O)c1ccc(-c2ccc(C(=O)Nc3ccc(-c4ccc(C(=O)Nc5cccc6cccc(S(=O)(=O)O)c56)cc4)cc3)cc2)cc1 [Compound 15, 8-(4′-(4′-(Methoxycarbonyl)-[1,1′-biphenyl]-4-carboxamido)-[1,1′-biphenyl]-4-carboxamido)naphthalene-1-sulfonic acid] | highly significant inhibitory activity; also recorded: inhibited the alloantigen-induced T cell response in this model in statistically significant manner | – | – | – |
| O=C(Nc1ccc(-c2ccc(C(=O)Nc3cccc4cccc(S(=O)(=O)O)c34)cc2)nc1)c1ccc([N+](=O)[O-])cc1 [Compound 18, 8-(4-(5-(4-Nitrobenzamido)pyridin-2-yl)benzamido)naphthalene-1-sulfonic acid] | highly significant inhibitory activity; also recorded: inhibited the alloantigen-induced T cell response in this model in statistically significant manner | 131 | 15 | – |
| O=C(Nc1ccc(-c2ccc(C(=O)Nc3cccc4cccc(S(=O)(=O)O)c34)cc2)cc1)c1ccc([N+](=O)[O-])cc1 [Compound 6, 8-(4′-(4-Nitrobenzamido)biphenyl-4-ylcarboxamido)naphthalene-1-sulfonic acid] | highly significant inhibitory activity; also recorded: inhibited the alloantigen-induced T cell response in this model in statistically significant manner | – | – | 0.307 |
